Data as given in US12509437B2, “Substituted thiophene carboxamides and derivatives thereof as microbicides” (Bayer Aktiengesellschaft, priority 2019, dated 2025).

Test: LogP by HPLC on reversed phase columns (EEC directive 79/831 Annex V.A8)
Format: physicochemical
Details: method [a]
Method: [table] If more than one Log P value is available within the same method, all the values are given and separated by “+”. Calibration was done with straight-chain alkan2-ones (with 3 to 16 carbon atoms) with known Log P values (measurement of Log P values using retention times with linear interpolation between successive alkanones). Lambda-max-values were determined using UV-spectra from 200 nm to 400 nm and the peak values of the chromatographic signals.

Row | SMILES | LogP
1 | CCOC(=O)C1(NC(=O)c2sc(Br)c(Br)c2C)CCCC1 [I.106] | 4.09^[a]
2 | COC(=O)C1(NC(=O)c2sc(Br)c(Br)c2C)CCOCC1 [I.107] | 2.82^[a]
3 | COC(=O)CC(C)NC(=O)c1sc(Br)c(Br)c1C (stereo not drawn) [I.109] | 3.14^[a]
4 | CNC(=O)CNC(=O)c1sc(Cl)c(Cl)c1C [I.110] | 1.92^[a]
5 | CCOC(=O)C(NC(=O)c1sc(Br)c(Br)c1C)(OCC)C(C)C (stereo not drawn) [I.112] | 4.80^[a]
6 | COC(=O)CNC(=S)c1sc(Cl)c(Cl)c1C [I.113] | 3.60^[a]
7 | COC(=O)C(C1CC1)N(O)C(=O)c1sc(Cl)c(Cl)c1C (stereo not drawn) [I.114] | 3.13^[a]
8 | Cc1c(C(=O)NC(C(=O)NO)C(C)C)sc(Br)c1Br (stereo not drawn) [I.115] | 2.31^[a]
9 | CCOC(=O)CN(O)C(=O)c1sc(Cl)c(Cl)c1C [I.116] | 2.95^[a]
10 | COC(=O)C(CCSC(C)=O)NC(=O)c1sc(Cl)c(Cl)c1C (stereo not drawn) [I.117] | 3.59^[a]
11 | COC(=O)CC(NC(=O)c1sc(Cl)c(Cl)c1C)C(=O)OC (stereo not drawn) [I.118] | 3.00^[a]
12 | COC(=O)[C@H](CSC(=O)N(C)C)NC(=O)c1sc(Cl)c(Cl)c1C [I.119] | 3.35^[a]
13 | CCNC(=O)SC[C@H](NC(=O)c1sc(Cl)c(Cl)c1C)C(=O)OC [I.120] | 3.22^[a]
14 | CNC(=S)SC[C@H](NC(=O)c1sc(Cl)c(Cl)c1C)C(=O)OC [I.121] | 3.33^[a]
15 | CCOC(=O)CC(NC(=O)c1sc(Cl)c(Cl)c1C)C(=O)OCC (stereo not drawn) [I.123] | 3.76^[a]
16 | CCOC(=O)CCC(NC(=O)c1sc(Cl)c(Cl)c1C)C(=O)OCC (stereo not drawn) [I.124] | 3.84^[a]
17 | COC(=O)[C@H](CC(=O)OC(C)(C)C)NC(=O)c1sc(Cl)c(Cl)c1C [I.125] | 4.17^[a]
18 | CCOC(=O)C(CSC(C)=O)NC(=O)c1sc(Cl)c(Cl)c1C (stereo not drawn) [I.126] | 3.51^[a]

Row | SMILES | LogP
19 | Cc1c(C(=S)NC2(C(=O)OC3CCC3)CC2)sc(Br)c1Br [I.127] | 4.66^[a]
20 | Cc1c(C(=O)NC2(C(N)=O)CC2)sc(Br)c1Br [I.129] | 2.07^[a]
21 | CNC(=O)C1(NC(=O)c2sc(Br)c(Br)c2C)CC1 [I.130] | 2.21^[a]
22 | Cc1c(C(=O)NC2(C(=O)NC3CCC3)CC2)sc(Br)c1Br [I.135] | 2.94^[a]
23 | COC(=O)C(CCC(N)=O)NC(=O)c1sc(Br)c(Br)c1C (stereo not drawn) [I.138] | 2.13^[a]
24 | CCOC(=O)C1(NC(=O)c2sc(Br)c(Br)c2C)CCOCC1 [I.139] | 3.17^[a]
25 | Cc1c(C(=O)NC(C(=O)OCc2ccccc2)C2CC2)sc(Cl)c1Cl (stereo not drawn) [I.140] | 4.53^[a]
26 | Cc1c(C(=O)NC2(C(=O)OC(C)C)CCC2)sc(Cl)c1Cl [I.141] | 4.05^[a]
27 | COC(=O)C1(NC(=O)c2sc(Cl)c(Cl)c2C)CC(C)(C)C1 [I.142] | 4.05^[a]
28 | COC(=O)C1(NC(=O)c2sc(Cl)c(Cl)c2C)CC(F)(F)C1 [I.143] | 3.43^[a]
29 | COC(=O)C1(NC(=O)c2sc(Cl)c(Cl)c2C)COC1 [I.144] | 2.52^[a]
30 | Cc1c(C(=O)NC2(C(=O)OC(C)(C)C)CC(F)(F)C2)sc(Cl)c1Cl [I.145] | 4.48^[a]
31 | CCOC(=O)C1(NC(=O)c2sc(Cl)c(Cl)c2C)CSC1 [I.146] | 3.60^[a]
32 | CCOC(=O)[C@H](CO)NC(=O)c1sc(Cl)c(Cl)c1C [I.148] | 2.53^[a]
33 | COC(=O)C(C)NC(=S)c1sc(Br)c(Br)c1C (stereo not drawn) [I.149] | 4.05^[a]
34 | CCOC(=O)C(C)NC(=S)c1sc(Br)c(Br)c1C (stereo not drawn) [I.150] | 4.38^[a]
35 | Cc1c(C(=O)NC(C)(C#N)C2CC2)sc(Br)c1Br (stereo not drawn) [I.152] | 3.50^[a]

Same assay, conditions: method [a]: LC-UV, acidic range, 0.1% formic acid in water and acetonitrile as eluent

Row | SMILES | LogP
36 | COC(=O)[C@H](Cc1ccccc1)NC(=O)[C@H](CC(=O)O)NC(=O)c1sc(Br)c(Br)c1C [I.105] | 3.11^[a]
37 | Cc1c(C(=O)NC2CCOC2=O)sc(Cl)c1Cl (stereo not drawn) [I.147] | 2.40^[a]
38 | Cc1c(C(=O)NC2(C#N)CCC(C3CCCCC3)CC2)sc(Br)c1Br (stereo not drawn) [I.151] | 6.06^[a]

Same assay, conditions: method [b]: LC-UV, neutral range, 0.001 molar ammonium acetate solution in water and acetonitrile as eluent

Row | SMILES | LogP
39 | Cc1c(C(=O)N[C@H]2CCSC2=O)sc(Cl)c1Cl [I.111] | 2.97^[b]
